Results on 14 compounds are retold here after ChEMBL document CHEMBL4118187, “In vitro activity of salicylamide derivatives against vancomycin-resistant enterococci” (Bioorg Med Chem Lett, 2018).

The test system of data set [1] is Enterococcus faecalis. The experiment in a line: Antibacterial activity against vancomycin-susceptible Enterococcus faecalis ATCC 29212 after 24 hrs. It is filed as functional. The following applies: ATCC 29212, 24 h.
For data set [2], the system named is Enterococcus faecalis. The experiment in a line: Antibacterial activity against vancomycin-resistant Enterococcus faecalis 725B after 24 hrs. Format: functional.
For data set [3], the system named is Enterococcus faecalis. The data set can be described thus: Antibacterial activity against vancomycin-resistant Enterococcus faecalis 368 after 24 hrs. It is filed as functional. The following applies: Enterococcus faecalis, 368, 24 h.
In data set [4] the test system is Enterococcus faecalis. The experiment in a line: Antibacterial activity against vancomycin-resistant Enterococcus faecalis 342B after 24 hrs. Format: functional.
Data set [5] is described as follows: Cytotoxicity against human THP1 cells after 24 hrs by LDH release assay. The conditions noted are these: THP-1 cells, read-out: LD50. It is filed as cell-based.
The test system of data set [6] is Enterococcus faecalis. The experiment in a line: Antibacterial activity against vancomycin-resistant Enterococcus faecalis 725B assessed as compound concentration causing additive effect after 18 hrs in presence of ciprofloxacin by checkerboard assay. It is filed as functional.
The test system of data set [7] is Enterococcus faecalis. The experiment in a line: Antibacterial activity against vancomycin-resistant Enterococcus faecalis 725B assessed as ciprofloxacin concentration causing additive effect after 18 hrs by checkerboard assay. Format: functional.
Data set [8] deals with Enterococcus faecalis. The experiment in a line: Antibacterial activity against vancomycin-resistant Enterococcus faecalis 368 assessed as compound concentration causing additive effect after 18 hrs in presence of vancomycin after 18 hrs by checkerboard assay. It is filed as functional.
Data set [9] concerns Enterococcus faecalis. The experiment in a line: Antibacterial activity against vancomycin-resistant Enterococcus faecalis 725B in presence of ciprofloxacin after 18 hrs by checkerboard assay. Format: functional.
Data set [10] has as its system Enterococcus faecalis. The data set can be described thus: Antibacterial activity against vancomycin-resistant Enterococcus faecalis 342B in presence of tetracycline after 18 hrs by checkerboard assay. It is filed as functional.
The subject of data set [11] is Enterococcus faecalis. The data set can be described thus: Antibacterial activity against vancomycin-resistant Enterococcus faecalis 368 assessed as vancomycin concentration causing additive effect after 18 hrs after 18 hrs by checkerboard assay. It is filed as functional.
The subject of data set [12] is Enterococcus faecalis. The data set can be described thus: Antibacterial activity against vancomycin-resistant Enterococcus faecalis 368 in presence of tetracycline after 18 hrs by checkerboard assay. Format: functional.
Data set [13] concerns Enterococcus faecalis. The experiment in a line: Antibacterial activity against vancomycin-resistant Enterococcus faecalis 725B in presence of vancomycin after 18 hrs by checkerboard assay. It is filed as functional.
Data set [14] deals with Enterococcus faecalis. The data set can be described thus: Antibacterial activity against vancomycin-resistant Enterococcus faecalis 368 in presence of vancomycin after 18 hrs by checkerboard assay. It is filed as functional.
Data set [15] can be described thus: Selectivity index, ratio of LD50 for human THP1 cells to MIC for vancomycin-resistant Enterococcus faecalis 342B. It is filed as toxicity. The conditions noted are these: THP-1 cells, read-out: Selectivity Index.
Data set [16] deals with Enterococcus faecalis. The data set can be described thus: Antibacterial activity against vancomycin-resistant Enterococcus faecalis 342B assessed as vancomycin concentration causing additive effect after 18 hrs by checkerboard assay. Format: functional.
Data set [17] concerns Enterococcus faecalis. The experiment in a line: Antibacterial activity against vancomycin-resistant Enterococcus faecalis 725B in presence of tetracycline after 18 hrs by checkerboard assay. It is filed as functional.
Data set [18] deals with Enterococcus faecalis. The experiment in a line: Antibacterial activity against vancomycin-resistant Enterococcus faecalis 342B in presence of vancomycin after 18 hrs by checkerboard assay. It is filed as functional.
The subject of data set [19] is Enterococcus faecalis. The experiment in a line: Antibacterial activity against vancomycin-resistant Enterococcus faecalis 342B assessed as compound concentration causing additive effect after 18 hrs in presence of vancomycin by checkerboard assay. It is filed as functional.

Values after ≈ are worked out from the molar mass of the structure shown.

Regarding `CC(C)[C@H](NC(=O)OCc1ccccc1)C(=O)Oc1ccc(Cl)cc1C(=O)Nc1ccc(C(F)(F)F)cc1`, the MBC in the data set on Enterococcus faecalis [1], against Enterococcus faecalis [2], against Enterococcus faecalis [3] and in the data set with Enterococcus faecalis [4] was over 466 µM in each case. For the same compound, the minimal inhibitory concentration (MIC) against Enterococcus faecalis [1], against Enterococcus faecalis [2], with Enterococcus faecalis [3] and in the data set on Enterococcus faecalis [4] was over 466 µM in each case.
With `CC(C)[C@H](NC(=O)OCc1ccccc1)C(=O)Oc1ccc(Cl)cc1C(=O)Nc1ccc([N+](=O)[O-])cc1`, the MBC in the data set on Enterococcus faecalis [1], in the data set with Enterococcus faecalis [2], in the data set on Enterococcus faecalis [3] and in the data set with Enterococcus faecalis [4] was over 486 µM throughout. In addition, the MIC with Enterococcus faecalis [1], in the data set on Enterococcus faecalis [2], against Enterococcus faecalis [3] and in the data set on Enterococcus faecalis [4] was over 486 µM throughout.
In the case of `O=C(Nc1ccc(Cl)c(Cl)c1)c1ccc(Cl)cc1O`, the MBC in the data set on Enterococcus faecalis [1] was found to be 1.58 µM (≈ 0.5 µg/mL); against Enterococcus faecalis [2], 25.3 µM (≈ 8 µg/mL); with Enterococcus faecalis [3], 202 µM (≈ 63.9 µg/mL); in the data set with Enterococcus faecalis [4] it was 25.3 µM (≈ 8 µg/mL). Further, the MIC in the data set with Enterococcus faecalis [1] was 0.395 µM (≈ 0.125 µg/mL); in the data set on Enterococcus faecalis [2] it was 0.199 µM (≈ 0.063 µg/mL); in the data set on Enterococcus faecalis [3], 0.79 µM (≈ 0.25 µg/mL); against Enterococcus faecalis [4] it was 0.199 µM (≈ 0.063 µg/mL). Moreover, in data set [5], the CC50 at 24 h was determined as 25.6 µM. In addition, the Activity came to 0.032 µg/mL in the data set on Enterococcus faecalis [6]; 32 µg/mL with Enterococcus faecalis [7]; 0.25 µg/mL with Enterococcus faecalis [8]; 256 µg/mL in the data set on Enterococcus faecalis [11]; 256 µg/mL with Enterococcus faecalis [16]; 0.032 µg/mL with Enterococcus faecalis [19]. Moreover, the FIC is 0.756 - 1.25 in the data set on Enterococcus faecalis [9]; 1.016 - 1.508 with Enterococcus faecalis [10]; 1.016 - 1.504 in the data set on Enterococcus faecalis [12]; 1.031 - 2.234 in the data set on Enterococcus faecalis [13]; 1 - 1.25 in the data set with Enterococcus faecalis [14]; 1.016 - 1.504 with Enterococcus faecalis [17]. Further, the FIC in the data set on Enterococcus faecalis [18] is 0.629 - 1.128. Moreover, the selectivity ratio in data set [15] was determined as 128.
Take `CC1(C)S[C@@H]2[C@H](NC(=O)[C@H](N)c3ccccc3)C(=O)N2[C@H]1C(=O)O` [AMPICILLIN]: in the data set on Enterococcus faecalis [2], the minimum bactericidal concentration (MBC) is 5.72 µM (≈ 2 µg/mL) and the minimal inhibitory concentration (MIC) is 5.72 µM (≈ 2 µg/mL).
On to `CC(C)[C@H](NC(=O)OCc1ccccc1)C(=O)Oc1cc(Cl)ccc1C(=O)Nc1ccc(Cl)c(Cl)c1`, for which the MBC in the data set with Enterococcus faecalis [1], in the data set on Enterococcus faecalis [2], against Enterococcus faecalis [3] and in the data set on Enterococcus faecalis [4] was over 465 µM each time. Also, the MIC with Enterococcus faecalis [1], in the data set with Enterococcus faecalis [2], in the data set on Enterococcus faecalis [3] and against Enterococcus faecalis [4] was over 465 µM throughout.
Consider `CC(C)[C@H](NC(=O)c1cc(Cl)ccc1O)C(=O)Nc1ccc(C(F)(F)F)cc1`, for which the MBC is 19.3 µM (≈ 8 µg/mL) against Enterococcus faecalis [1], over 617 µM in the data set with Enterococcus faecalis [2], over 617 µM in the data set on Enterococcus faecalis [3] and over 617 µM against Enterococcus faecalis [4]. The MIC against Enterococcus faecalis [1] is 19.3 µM (≈ 8 µg/mL); against Enterococcus faecalis [2] it was over 617 µM; in the data set with Enterococcus faecalis [3], over 617 µM; in the data set on Enterococcus faecalis [4] it was over 617 µM.
For `CC(C)[C@H](NC(=O)c1ccc(Cl)cc1O)C(=O)Nc1ccc(Br)cc1`, the MBC in the data set with Enterococcus faecalis [1], in the data set on Enterococcus faecalis [2], with Enterococcus faecalis [3] and against Enterococcus faecalis [4] was over 601 µM in each case. Also, the MIC in the data set on Enterococcus faecalis [1], against Enterococcus faecalis [2], against Enterococcus faecalis [3] and in the data set on Enterococcus faecalis [4] was over 601 µM throughout.
For the compound `O=C(Nc1ccccc1)c1cc(Cl)ccc1O`, the MBC in the data set with Enterococcus faecalis [1] is 1.01 µM (≈ 0.25 µg/mL); in the data set on Enterococcus faecalis [2], 516 µM (≈ 128 µg/mL); in the data set on Enterococcus faecalis [3], 1030 µM (≈ 256 µg/mL); in the data set on Enterococcus faecalis [4], over 1030 µM. Moreover, the MIC against Enterococcus faecalis [1] was 0.5 µM (≈ 0.124 µg/mL); in the data set with Enterococcus faecalis [2], 129 µM (≈ 32 µg/mL); in the data set on Enterococcus faecalis [3] it was 129 µM (≈ 32 µg/mL); against Enterococcus faecalis [4], 64.6 µM (≈ 16 µg/mL). Moreover, the CC50 at 24 h in [5] is over 40 µM.
For `COc1ccc(NC(=O)c2cc(Cl)ccc2OC(=O)[C@@H](NC(=O)OCc2ccccc2)C(C)C)cc1`, the MBC with Enterococcus faecalis [1], with Enterococcus faecalis [2], against Enterococcus faecalis [3] and against Enterococcus faecalis [4] was over 499 µM throughout. In addition, the MIC against Enterococcus faecalis [1], in the data set with Enterococcus faecalis [2], against Enterococcus faecalis [3] and against Enterococcus faecalis [4] was over 499 µM each time.
With `Cc1ccc(NC(=O)[C@@H](NC(=O)c2cc(Cl)ccc2O)C(C)C)cc1`, the minimal bactericidal concentration (MBC) in the data set with Enterococcus faecalis [1], against Enterococcus faecalis [2], with Enterococcus faecalis [3] and in the data set on Enterococcus faecalis [4] was over 709 µM throughout. Further, the MIC against Enterococcus faecalis [1], against Enterococcus faecalis [2], in the data set on Enterococcus faecalis [3] and in the data set on Enterococcus faecalis [4] was over 709 µM each time.
In the case of `CN[C@H](CC(C)C)C(=O)N[C@H]1C(=O)N[C@@H](CC(N)=O)C(=O)N[C@H]2C(=O)N[C@H]3C(=O)N[C@H](C(=O)N[C@H](C(=O)O)c4cc(O)cc(O)c4-c4cc3ccc4O)[C@H](O)c3ccc(c(Cl)c3)Oc3cc2cc(c3O[C@@H]2O[C@H](CO)[C@@H](O)[C@H](O)[C@H]2O[C@H]2C[C@](C)(N)[C@H](O)[C@H](C)O2)Oc2ccc(cc2Cl)[C@H]1O` [VANCOMYCIN], the MIC was found to be 706 µM (≈ 1020 µg/mL) against Enterococcus faecalis [2], 353 µM (≈ 512 µg/mL) with Enterococcus faecalis [3] and 353 µM (≈ 512 µg/mL) in the data set on Enterococcus faecalis [4].
On to `CN(C)[C@@H]1C(O)=C(C(N)=O)C(=O)[C@@]2(O)C(O)=C3C(=O)c4c(O)cccc4[C@@](C)(O)[C@H]3C[C@@H]12` [TETRACYCLINE], for which the MIC in the data set with Enterococcus faecalis [2], against Enterococcus faecalis [3] and against Enterococcus faecalis [4] was 144 µM (≈ 64 µg/mL) each time.
On to `CC(C)[C@H](NC(=O)OCc1ccccc1)C(=O)Oc1ccc([N+](=O)[O-])cc1C(=O)Nc1ccc(Cl)cc1`, for which the MBC in the data set on Enterococcus faecalis [1], with Enterococcus faecalis [2], in the data set on Enterococcus faecalis [3] and against Enterococcus faecalis [4] was over 466 µM each time. Further, the MIC against Enterococcus faecalis [1], in the data set on Enterococcus faecalis [2], in the data set with Enterococcus faecalis [3] and against Enterococcus faecalis [4] was over 466 µM throughout.
Take `O=C(Nc1ccc(Cl)cc1)c1cc([N+](=O)[O-])ccc1O`: the MBC against Enterococcus faecalis [1], in the data set with Enterococcus faecalis [2], against Enterococcus faecalis [3] and with Enterococcus faecalis [4] was over 874 µM each time. For the same compound, the MIC in the data set with Enterococcus faecalis [1], with Enterococcus faecalis [2], against Enterococcus faecalis [3] and against Enterococcus faecalis [4] was over 874 µM each time. Also, the CC50 at 24 h in [5] is over 40 µM.
